Laboratory results: patent publication US9815839B2, “N-(1-(substituted-phenyl)ethyl)-9H-purin-6-amines as PI3K inhibitors” (Incyte Corporation, priority 2010, dated 2017)
Counter-ions that a name gives are not always drawn.

How the values were obtained:
[1] = system: Pfeiffer cell line (diffuse large B cell lymphoma); experiment: Pfeiffer cell proliferation assay; format: cell-based; conditions: Homo sapiens, Pfeiffer, Pfeiffer cells, 3-4 days plus 12 hours [3H]-thymidine incorporation
Procedure: Example C: Pfeiffer Cell Proliferation Assay
Pfeiffer cell line (diffuse large B cell lymphoma) was purchased from ATCC (Manassas, Va.) and maintained in the culture medium recommended (RPMI and 10% FBS). To measure the anti-proliferation activity of the compounds, the Pfeiffer cells were plated with the culture medium (2×10^3 cells/well/per 200 μl) into 96-well ultra-low binding plates (Corning, Corning, N.Y.), in the presence or absence of a concentration range of test compounds. After 3-4 days, [^3H]-thymidine (1 μCi/well) (PerkinElmer, Boston, Mass.) in PBS was then added to the cell culture for an additional 12 hours before the incorporated radioactivity was separated by filtration with water through GF/B filters (Packard Bioscience, Meridenj, Conn.) and measured by liquid scintillation counting with a TopCount (Packard Bioscience).

PI3Kδ (p110δ/p85α) = target: T1, PI3Kδ (p110δ/p85α) (Homo sapiens, UniProt O00329); experiment: PI3Kδ scintillation proximity assay; format: biochemical; conditions: 20 μM ATP, 4 nM PI3Kδ
T1 construct: purchased Millipore (Bedford, Mass.)
How it was run: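 p110δ/p85α (4 nM) phosphorylated 20 μM PIP2 with 20 μM ATP plus [γ-33P]ATP in 20 mM MOPS pH 6.7, 10 mM MgCl2, 5 mM DTT, 0.03% CHAPS, 0.5% DMSO, 210 min at room temperature. EDTA quench, WGA SPA bead capture, scintillation counting; IC50 from log-concentration fit.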

T1 sequence (O00329 whole entry, species assumed): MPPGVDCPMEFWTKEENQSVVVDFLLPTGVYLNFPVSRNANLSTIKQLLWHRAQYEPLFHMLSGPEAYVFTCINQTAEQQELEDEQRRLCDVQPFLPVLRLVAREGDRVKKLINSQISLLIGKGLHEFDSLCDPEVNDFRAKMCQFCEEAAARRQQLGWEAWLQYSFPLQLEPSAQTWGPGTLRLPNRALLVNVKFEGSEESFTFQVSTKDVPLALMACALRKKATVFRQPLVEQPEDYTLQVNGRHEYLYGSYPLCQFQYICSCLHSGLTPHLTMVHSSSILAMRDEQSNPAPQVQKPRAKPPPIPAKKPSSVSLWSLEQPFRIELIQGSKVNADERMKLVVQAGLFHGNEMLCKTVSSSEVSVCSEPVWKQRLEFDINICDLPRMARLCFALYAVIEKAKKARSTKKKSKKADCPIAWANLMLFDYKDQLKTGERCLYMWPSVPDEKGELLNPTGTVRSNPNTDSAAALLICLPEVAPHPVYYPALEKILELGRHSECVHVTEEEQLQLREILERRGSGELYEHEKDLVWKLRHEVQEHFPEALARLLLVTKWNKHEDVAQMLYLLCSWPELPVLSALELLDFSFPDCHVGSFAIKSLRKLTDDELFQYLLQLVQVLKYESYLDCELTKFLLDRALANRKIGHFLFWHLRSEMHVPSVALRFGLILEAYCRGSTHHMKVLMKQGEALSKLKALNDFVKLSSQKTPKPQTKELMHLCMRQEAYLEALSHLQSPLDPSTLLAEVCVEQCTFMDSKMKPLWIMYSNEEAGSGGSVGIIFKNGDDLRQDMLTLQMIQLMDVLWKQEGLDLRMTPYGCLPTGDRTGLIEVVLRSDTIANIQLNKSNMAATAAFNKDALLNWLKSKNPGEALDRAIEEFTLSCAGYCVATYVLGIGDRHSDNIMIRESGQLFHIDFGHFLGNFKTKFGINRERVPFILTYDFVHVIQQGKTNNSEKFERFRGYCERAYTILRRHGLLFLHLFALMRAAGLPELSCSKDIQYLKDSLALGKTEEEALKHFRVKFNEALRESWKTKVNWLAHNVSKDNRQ
T1 sequence (P27986 whole entry partner, species assumed): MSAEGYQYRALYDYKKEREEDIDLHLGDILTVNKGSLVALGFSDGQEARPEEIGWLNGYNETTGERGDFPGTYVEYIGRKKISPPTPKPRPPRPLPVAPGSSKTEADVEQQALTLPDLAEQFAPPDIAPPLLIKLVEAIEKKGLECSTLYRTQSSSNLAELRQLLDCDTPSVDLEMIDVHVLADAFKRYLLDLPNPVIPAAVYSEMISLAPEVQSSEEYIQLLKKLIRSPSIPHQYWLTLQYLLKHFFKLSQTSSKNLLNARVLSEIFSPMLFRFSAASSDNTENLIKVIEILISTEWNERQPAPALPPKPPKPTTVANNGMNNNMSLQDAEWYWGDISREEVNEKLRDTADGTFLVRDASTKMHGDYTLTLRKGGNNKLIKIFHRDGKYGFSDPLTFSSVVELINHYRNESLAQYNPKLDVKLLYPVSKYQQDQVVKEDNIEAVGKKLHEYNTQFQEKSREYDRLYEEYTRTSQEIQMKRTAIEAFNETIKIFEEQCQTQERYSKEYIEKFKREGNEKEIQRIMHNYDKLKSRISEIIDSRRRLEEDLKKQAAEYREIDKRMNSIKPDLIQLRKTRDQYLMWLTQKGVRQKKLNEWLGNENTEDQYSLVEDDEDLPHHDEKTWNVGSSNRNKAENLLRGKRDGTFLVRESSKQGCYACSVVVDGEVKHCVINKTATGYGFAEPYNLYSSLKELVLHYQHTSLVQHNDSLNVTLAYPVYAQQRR

| IC50 [1] | IC50 (PI3Kδ (p110δ/p85α)) | SMILES |
| --- | --- | --- |
| 100 to 500 nM | < 50 nM | COc1c(C(C)Nc2ncnc3[nH]cnc23)cc(Cl)c(C)c1-c1ccc(NC(C)=O)cc1 (centres unmarked) [Example 27, N-{3′-chloro-6′-methoxy-2′-methyl-5′-[1-(9H-purin-6-ylamino)ethyl]biphenyl-4-yl}acetamide] |
| 100 to 500 nM | < 50 nM | COc1c(C(C)Nc2ncnc3[nH]cnc23)cc(Cl)c(C)c1-c1cccc(F)c1 (centres unmarked) [Example 28, N-[1-(5-chloro-3′-fluoro-2-methoxy-6-methylbiphenyl-3-yl)ethyl]-9H-purin-6-amine] |
| 100 to 500 nM | < 50 nM | COc1c(C(C)Nc2ncnc3[nH]cnc23)cc(Cl)c(C)c1-c1cc(F)cc(F)c1 (centres unmarked) [Example 29, N-[1-(5-chloro-3′,5′-difluoro-2-methoxy-6-methylbiphenyl-3-yl)ethyl]-9H-purin-6-amine] |
| 100 to 500 nM | < 50 nM | COc1c(C(C)Nc2ncnc3[nH]cnc23)cc(Cl)c(C)c1-c1ccc(C#N)cc1 (centres unmarked) [Example 30, 3′-chloro-6′-methoxy-2′-methyl-5′[1-(9H-purin-6-ylamino)ethyl]biphenyl-4-carbonitrile] |
| < 100 nM | < 50 nM | CNC(=O)c1ccc(-c2c(C)c(Cl)cc(C(C)Nc3ncnc4[nH]cnc34)c2OC)cc1Cl (centres unmarked) [Example 37, 3,3′-dichloro-6′-methoxy-N,2′-dimethyl-5′-[1-(9H-purin-6-ylamino)ethyl]biphenyl-4-carboxamide] |
| < 100 nM | < 50 nM | COc1c(C(C)Nc2ncnc3[nH]cnc23)cc(Cl)c(C)c1-c1cccc(C#N)c1 (centres unmarked) [Example 40, 3′-chloro-6′-methoxy-2′-methyl-5′-[1-(9H-purin-6-ylamino)ethyl]biphenyl-3-carbonitrile] |
| > 1000 nM | < 50 nM | COc1c(C(C)Nc2ncnc3[nH]cnc23)cc(Cl)c(C)c1-c1ccc(CC#N)cc1 (centres unmarked) [Example 41, {3′-chloro-6′-methoxy-2′-methyl-5′-[1-(9H-purin-6-ylamino)ethyl]biphenyl-4-yl}acetonitril] |
| 100 to 500 nM | < 50 nM | COc1c(C(C)Nc2ncnc3[nH]cnc23)cc(Cl)c(C)c1-c1ccc(-n2cccn2)cc1 (centres unmarked) [Example 43, N-{1-[5-chloro-2-methoxy-6-methyl-4′-(1H-pyrazol-1-yl)biphenyl-3-yl]ethyl}-9H-purin-6-amine] |
| > 1000 nM | 100 to 250 nM | COc1c(C(C)Nc2ncnc3[nH]cnc23)cc(Cl)c(C)c1-c1cc(Cl)cc(Cl)c1 (centres unmarked) [Example 47, N-[1-(3′,5,5′-trichloro-2-methoxy-6-methylbiphenyl-3-yl)ethyl]-9H-purin-6-amine] |
| < 100 nM | < 50 nM | COc1c(C(C)Nc2ncnc3[nH]cnc23)cc(Cl)c(C)c1-c1ccnc(N2CCOCC2)c1F (centres unmarked) [Example 49, N-{1-[5-chloro-3-(3-fluoro-2-morpholin-4-ylpyridin-4-yl)-2-methoxy-4-methylphenyl]ethyl}-9H-purin-6-amine] |
| < 100 nM | < 50 nM | COc1ccc(-c2c(C)c(Cl)cc(C(C)Nc3ncnc4[nH]cnc34)c2OC)cn1 (centres unmarked) [Example 52, N-{1-[5-chloro-2-methoxy-3-(6-methoxypyridin-3-yl)-4-methylphenyl]ethyl}-9H-purin-6-amine] |
| > 1000 nM | < 50 nM | COc1c(C(C)Nc2ncnc3[nH]cnc23)cc(Cl)c(C)c1N1CCC(O)CC1 (centres unmarked) [Example 60, 1-{3-Chloro-6-methoxy-2-methyl-5-[1-(9H-purin-6-ylamino)ethyl]phenyl}piperidin-4-ol] |
| < 100 nM | < 50 nM | Cc1c(Cl)cc(C(C)Nc2ncnc3[nH]cnc23)c(-c2cccc(F)c2)c1-c1cn[nH]c1 (centres unmarked) [Example 72, N-{1-[4-Chloro-3′-fluoro-5-methyl-6-(1H-pyrazol-4-yl)biphenyl-2-yl]ethyl}-9H-purin-6-amine trifluoroacetate] |
| < 100 nM | < 50 nM | Cc1c(Cl)cc(C(C)Nc2ncnc3[nH]cnc23)c(-c2cccc(F)c2)c1-c1ccnn1C (centres unmarked) [Example 74, N-{1-[4-chloro-3′-fluoro-5-methyl-6-(1-methyl-1H-pyrazol-5-yl)biphenyl-2-yl]ethyl}-9H-purin-6-amine] |
| < 100 nM | < 50 nM | Cc1noc(C)c1-c1c(C)c(Cl)cc(C(C)Nc2ncnc3[nH]cnc23)c1-c1cc(F)cc(F)c1 (centres unmarked) [Example 77, N-{1-[4-chloro-6-(3,5-dimethylisoxazol-4-yl)-3′,5′-difluoro-5-methylbiphenyl-2-yl]ethyl}-9H-purin-6-amine] |

The remaining lines, values behind:

| SMILES | IC50 [1] | IC50 (PI3Kδ (p110δ/p85α)) |
| --- | --- | --- |
| CC(=O)Nc1ccc(-c2c(C)c(Cl)cc(C(C)Nc3ncnc4[nH]cnc34)c2-c2ccccc2)cc1 (centres unmarked) [Example 26, N-{5′-chloro-6′-methyl-3′-[1-(9H-purin-6-ylamino)ethyl]-1,1′:2′,1″-terphenyl-4-yl}acetamide] | < 100 nM | < 50 nM |
| COc1c(C(C)Nc2ncnc3[nH]cnc23)cc(Cl)c(C)c1-c1ccc(C(=O)NC2CC2)cc1 (centres unmarked) [Example 31, 3′-chloro-N-cyclopropyl-6′-methoxy-2′-methyl-5′-[1-(9H-purin-6-ylamino)ethyl]biphenyl-4-carboxamide] | < 100 nM | < 50 nM |
| COc1cncc(-c2c(C)c(Cl)cc(C(C)Nc3ncnc4[nH]cnc34)c2OC)c1 (centres unmarked) [Example 34, N-{1-[5-chloro-2-methoxy-3-(5-methoxypyridin-3-yl)-4-methylphenyl]ethyl}-9H-purin-6-amine] | < 100 nM | < 50 nM |
| COc1c(C(C)Nc2ncnc3[nH]cnc23)cc(Cl)c(C)c1-c1cccc(Cl)c1 (centres unmarked) [Example 35, N-[1-(3′,5-dichloro-2-methoxy-6-methylbiphenyl-3-yl)ethyl]-9H-purin-6-amine] | > 1000 nM | 50 to 100 nM |
| COc1c(C(C)Nc2ncnc3[nH]cnc23)cc(Cl)c(C)c1-c1cncc(Cl)c1 (centres unmarked) [Example 36, N-{1-[5-chloro-3-(5-chloropyridin-3-yl)-2-methoxy-4-methylphenyl]ethyl}-9H-purin-6-amine] | < 100 nM | < 50 nM |
| COc1c(C(C)Nc2ncnc3[nH]cnc23)cc(Cl)c(C)c1-c1ccc(C(F)(F)F)cc1 (centres unmarked) [Example 38, N-{1-[5-chloro-2-methoxy-6-methyl-4′-(trifluoromethyl)biphenyl-3-yl]ethyl}-9H-purin-6-amine] | > 1000 nM | 100 to 250 nM |
| CCOc1ccc(-c2c(C)c(Cl)cc(C(C)Nc3ncnc4[nH]cnc34)c2OC)cc1F (centres unmarked) [Example 39, N-[1-(5-chloro-4′-ethoxy-3′-fluoro-2-methoxy-6-methylbiphenyl-3-yl)ethyl]-9H-purin-6-amine] | > 1000 nM | 100 to 250 nM |
| COCc1ccc(-c2c(C)c(Cl)cc(C(C)Nc3ncnc4[nH]cnc34)c2OC)cc1 (centres unmarked) [Example 42, N-{1-[5-chloro-2-methoxy-4′-(methoxymethyl)-6-methylbiphenyl-3-yl]ethyl}-9H-purin-6-amine] | 100 to 500 nM | < 50 nM |
| COCc1cccc(-c2c(C)c(Cl)cc(C(C)Nc3ncnc4[nH]cnc34)c2OC)c1 (centres unmarked) [Example 44, N-{1-[5-chloro-2-methoxy-3′-(methoxymethyl)-6-methylbiphenyl-3-yl]ethyl}-9H-purin-6-amine] | 100 to 500 nM | < 50 nM |
| COc1c(C(C)Nc2ncnc3[nH]cnc23)cc(Cl)c(C)c1-c1ccc(OC2CCOCC2)nc1 (centres unmarked) [Example 45, N-(1-{5-chloro-2-methoxy-4-methyl-3-[6-(tetrahydro-2H-pyran-4-yloxy)pyridin-3-yl]phenyl}ethyl)-9H-purin-6-amine] | 100 to 500 nM | < 50 nM |
| COc1c(C(C)Nc2ncnc3[nH]cnc23)cc(Cl)c(C)c1-c1cccc(CC#N)c1 (centres unmarked) [Example 46, {3′-chloro-6′-methoxy-2′-methyl-5′-[1-(9H-purin-6-ylamino)ethyl]biphenyl-3-yl}acetonitrile] | < 100 nM | < 50 nM |
| COc1c(C(C)Nc2ncnc3[nH]cnc23)cc(Cl)c(C)c1-c1ccc(N2CCOCC2)nc1 (centres unmarked) [Example 48, N-{1-[5-chloro-2-methoxy-4-methyl-3-(6-morpholin-4-ylpyridin-3-yl)phenyl]ethyl}-9H-purin-6-amine] | < 100 nM | < 50 nM |
| COc1c(C(C)Nc2ncnc3[nH]cnc23)cc(Cl)c(C)c1-c1ccc(F)nc1 (centres unmarked) [Example 51, N-{1-[5-chloro-3-(6-fluoropyridin-3-yl)-2-methoxy-4-methylphenyl]ethyl}-9H-purin-6-amine] | < 100 nM | < 50 nM |
| Cc1noc(C)c1-c1c(C)c(Cl)cc(C(C)Nc2ncnc3[nH]cnc23)c1-c1cccc(F)c1 (centres unmarked) [Example 71, N-{1-[4-chloro-6-(3,5-dimethylisoxazol-4-yl)-3′-fluoro-5-methylbiphenyl-2-yl]ethyl}-9H-purin-6-amine trifluoroacetate] | < 100 nM | < 50 nM |
| Cc1nn(C)c(C)c1-c1c(C)c(Cl)cc(C(C)Nc2ncnc3[nH]cnc23)c1-c1cccc(F)c1 (centres unmarked) [Example 75, N-{1-[4-chloro-3′-fluoro-5-methyl-6-(1,3,5-trimethyl-1H-pyrazol-4-yl)biphenyl-2-yl]ethyl}-9H-purin-6-amine] | < 100 nM | < 50 nM |
| Cc1c(Cl)cc(C(C)Nc2ncnc3[nH]cnc23)c(-c2cc(F)cc(F)c2)c1-c1ccncc1 (centres unmarked) [Example 76, N-[1-(4-Chloro-3′,5′-difluoro-5-methyl-6-pyridin-4-ylbiphenyl-2-yl)ethyl]-9H-purin-6-amine bis(trifluoroacetate)] | < 100 nM | < 50 nM |
